From ChEMBL document CHEMBL5126524, “Niemann-Pick C1-Like 1 inhibitors for reducing cholesterol absorption” (Eur J Med Chem, 2022)

Biological target: T1, NPC1-like intracellular cholesterol transporter 1 (Homo sapiens, UniProt Q9UHC9)
T1 sequence (Q9UHC9 whole entry): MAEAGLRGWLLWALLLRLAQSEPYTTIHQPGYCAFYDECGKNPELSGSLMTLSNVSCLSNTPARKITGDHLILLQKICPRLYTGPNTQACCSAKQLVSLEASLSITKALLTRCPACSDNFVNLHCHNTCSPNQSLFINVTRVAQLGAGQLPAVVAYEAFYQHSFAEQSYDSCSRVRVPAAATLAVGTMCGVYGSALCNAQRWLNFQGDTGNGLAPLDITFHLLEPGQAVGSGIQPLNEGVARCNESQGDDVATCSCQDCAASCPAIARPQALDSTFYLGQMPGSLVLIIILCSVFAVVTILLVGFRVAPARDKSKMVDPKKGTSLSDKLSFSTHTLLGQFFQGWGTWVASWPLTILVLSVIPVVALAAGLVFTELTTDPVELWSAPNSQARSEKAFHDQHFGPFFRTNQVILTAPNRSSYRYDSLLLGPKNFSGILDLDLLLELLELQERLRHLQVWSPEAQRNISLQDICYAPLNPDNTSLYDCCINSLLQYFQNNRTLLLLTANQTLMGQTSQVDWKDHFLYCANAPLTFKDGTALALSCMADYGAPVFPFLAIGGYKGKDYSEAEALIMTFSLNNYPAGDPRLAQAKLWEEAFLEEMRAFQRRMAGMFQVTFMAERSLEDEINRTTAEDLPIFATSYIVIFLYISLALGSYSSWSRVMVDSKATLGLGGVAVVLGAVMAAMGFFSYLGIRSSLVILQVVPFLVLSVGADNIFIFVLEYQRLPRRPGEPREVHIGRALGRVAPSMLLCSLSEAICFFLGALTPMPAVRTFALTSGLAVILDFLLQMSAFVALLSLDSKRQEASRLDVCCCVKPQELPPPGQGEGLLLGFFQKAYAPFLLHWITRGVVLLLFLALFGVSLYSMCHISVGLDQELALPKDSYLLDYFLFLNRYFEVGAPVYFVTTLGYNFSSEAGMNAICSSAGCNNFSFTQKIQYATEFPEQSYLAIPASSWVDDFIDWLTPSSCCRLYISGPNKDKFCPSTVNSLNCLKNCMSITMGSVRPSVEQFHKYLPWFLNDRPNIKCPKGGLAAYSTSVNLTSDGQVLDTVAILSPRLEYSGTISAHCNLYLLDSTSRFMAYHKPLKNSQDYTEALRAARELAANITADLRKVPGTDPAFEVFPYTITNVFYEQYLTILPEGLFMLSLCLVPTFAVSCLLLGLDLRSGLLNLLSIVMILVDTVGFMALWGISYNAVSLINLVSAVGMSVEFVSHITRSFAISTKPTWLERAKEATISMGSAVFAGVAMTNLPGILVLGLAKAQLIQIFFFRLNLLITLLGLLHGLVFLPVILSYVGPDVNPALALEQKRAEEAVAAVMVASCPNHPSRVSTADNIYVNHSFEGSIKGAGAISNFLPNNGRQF
Test: Inhibition of NPC1L1 (unknown origin) assessed as inhibition of cholesterol cellular uptake by BCA colorimetric assay

- IC50: 0.37 µM
Structure (SMILES): O=C1[C@H](CC[C@H](O)c2ccc(F)cc2)[C@@H](c2ccc(O)cc2)N1c1ccc(F)cc1 [EZETIMIBE]
